Where a name gives a salt, the structure may show the parent alone.
These compounds were tested against T1, rat squalene epoxidase (Rattus norvegicus, UniProt P52020) (assay: Squalene epoxidase inhibiting activity (3H-squalene to squalene-2,3-epoxide, solubilized liver microsome fraction)). Conditions: 8 µM 3H-squalene, 37 °C, 30 minutes, read-out: 50 % inhibitory concentration (IC50).
T1 construct: Livers were extracted and homogenized; from tissue; host or cells: liver of SD-strain female rats; microsomes solubilized with 2 % Triton X-100, 105000 x g supernatant
T1 sequence (P52020 whole entry): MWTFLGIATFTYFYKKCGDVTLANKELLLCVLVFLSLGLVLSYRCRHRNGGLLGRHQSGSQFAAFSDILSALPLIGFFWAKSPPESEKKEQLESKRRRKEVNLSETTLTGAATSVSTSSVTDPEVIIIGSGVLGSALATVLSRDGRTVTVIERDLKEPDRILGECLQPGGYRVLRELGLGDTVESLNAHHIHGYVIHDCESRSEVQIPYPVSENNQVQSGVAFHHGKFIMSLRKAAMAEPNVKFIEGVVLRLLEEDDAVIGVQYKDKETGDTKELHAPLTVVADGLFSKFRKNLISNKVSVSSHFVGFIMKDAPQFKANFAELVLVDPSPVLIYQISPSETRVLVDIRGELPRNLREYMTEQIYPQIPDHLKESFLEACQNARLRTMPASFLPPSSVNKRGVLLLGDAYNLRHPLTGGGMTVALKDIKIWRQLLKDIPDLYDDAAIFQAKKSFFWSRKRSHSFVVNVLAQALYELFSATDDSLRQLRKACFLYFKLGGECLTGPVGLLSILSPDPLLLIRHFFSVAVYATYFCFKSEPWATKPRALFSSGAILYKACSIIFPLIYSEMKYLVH
Type: biochemical
Method: The rat squalene epoxidase was prepared by the method described in J. Biol. Chem., vol.
SD-strain female rats were killed by exsanguination. Livers were extracted and homogenized with in the presence of 2 volumes of 0.1M Tris-HCl buffer (pH 7.5). The homogenate was centrifuged at 9750 Xg for 10 minutes. The supernatant fraction was further centrifuged at 105000 Xg for 1 hour. The sediment was washed with 0.1M Tris-HCl buffer (pH 7.5), and then centrifuged at 105000 Xg for 1 hour. The microsomes obtained were suspended in 0.1M Tris-HCl buffer (pH 7.5) so that the amount of proteins was 40 mg/ml, and under ice cooling, the suspension was stirred in the presence of 2 % Triton X-100 to solubilize the enzyme. After the solubilization, the solution was diluted to a Triton X-100 concentration of 0.5 % with 1 mM EDTA and 1 mM dithiothreitol, and centrifuged at 105000 Xg for 1 hour. The resulting supernatant fraction was used in the following test as a squalene epoxidase fraction.
The squalene epoxidase activity was assayed in accordance with the method described in J. Biol. Chem., vol.
Three microliters of a dimethyl sulfoxide solution of a test drug was added to a solution composed of 0.2 ml of the squalene epoxidase fraction prepared in (1) [proteins 0.4 mg, 0.5 % Triton X-100, […] Tris-HCl buffer (pH 7.5)], 100 µM FAD, 1 mM NADPH, 1 mM EDTA and 8 µM ³H-squalene-Tween 80 emulsion to adjust the total amount of the solution to 0.3 ml. The solution was incubated at 37 °C for 30 minutes with shaking. Then, 0.3 ml of a 10 % methanolic potassium hydroxide was added to stop the reaction, and the reaction mixture was left to stand at room temperature for 1 hour. The non-saponified material was extracted with petroleum ether, and the solvent was evaporated under a nitrogen stream. […] The position of the resulting ³H-squalene-2,3-epoxide on TLC was determined using ergosterol acetate as a marker, and the ³H-squalene-2,3-epoxide portion on the TLC was cut off. The TLC strip was immersed in a toluene-type scintillator, and measured by a liquid scintillation counter.

Point of comparison: `CCN(C/C=C/C#CC(C)(C)C)Cc1cccc(OCc2cccc(-n3cccc3)c2)c1` [Compound 119, (E)-N-(6,6-dimethyl-2-hepten-4-ynyl)-N-ethyl-3-[3-(1-pyrrolyl)benzyloxy]benzylamine], IC50 7.1 nM. Against it:
- CCN(C/C=C/C#CC(C)(C)C)Cc1cccc(OCc2ccccc2)c1 [Compound 36, (E)-N-(6,6-dimethyl-2-hepten-4-ynyl)-N-ethyl-3-benzyloxybenzylamine hydrochloride] — 42-fold higher, 300 nM
- CN(C/C=C/C#CC(C)(C)C)Cc1cccc(OCc2cccc(-c3ncco3)c2)c1 [Compound 76, (E)-N-(6,6-dimethyl-2-hepten-4-ynyl)-N-methyl-3-[3-(2-oxazolyl)benzyloxy]benzylamine] — 170-fold higher, 1200 nM
- CN(C/C=C/C#CC(C)(C)C)Cc1cccc(OCc2cccc(-c3nccs3)c2)c1 [Compound 77, (E)-N-(6,6-dimethyl-2-hepten-4-ynyl)-N-methyl-3-[3-(2-thiazolyl)benzyloxy]benzylamine] — 170-fold higher, 1200 nM
- CN(C/C=C/C#CC(C)(C)C)Cc1cccc(OCc2cccc(-n3cccc3)c2)c1 [Compound 81, (E)-N-(6,6-dimethyl-2-hepten-4-ynyl)-N-methyl-3-[3-(1-pyrrolyl)benzyloxy]benzylamine] — 2-fold higher, 14 nM
- Cc1ccoc1COc1cccc(CN(C)C/C=C/C#CC(C)(C)C)c1 [Compound 82, (E)-N-(6,6-dimethyl-2-hepten-4-ynyl)-N-methyl-[(3-methyl-2-furyl)methyloxy]benzylamine] — 120-fold higher, 870 nM
- Cc1occc1COc1cccc(CN(C)C/C=C/C#CC(C)(C)C)c1 [Compound 83, (E)-N-(6,6-dimethyl-2-hepten-4-ynyl)-N-methyl-3-[(2-methyl-3-furyl)methyloxy]benzylamine] — 270-fold higher, 1900 nM
- CN(C/C=C/C#CC(C)(C)C)Cc1cccc(OCc2cccs2)c1 [Compound 86, (E)-N-(6,6-dimethyl-2-hepten-4-ynyl)-N-methyl-3-(2-thienylmethyloxy)benzylamine] — 460-fold higher, 3300 nM
- CN(C/C=C/C#CC(C)(C)C)Cc1cccc(OCc2cccc3cccnc23)c1 [Compound 87, (E)-N-(6,6-dimethyl-2-hepten-4-ynyl)-N-methyl-3-(8-quinolylmethyloxy)benzylamine hydrochloride] — 490-fold higher, 3500 nM
- C/C=C(\C)COc1cccc(CN(C)C/C=C/C#CC(C)(C)C)c1 [Compound 90, N-[(E)-6,6-dimethyl-2-hepten-4-ynyl]-N-methyl-3-[(E)-2-methyl-2-butenyloxy]benzylamine hydrochloride] — 770-fold higher, 5500 nM
- CC(C)=C(C)COc1cccc(CN(C)C/C=C/C#CC(C)(C)C)c1 [Compound 92, (E)-N-(6,6-dimethyl-2-hepten-4-ynyl)-N-methyl-3-(2,3-dimethyl-2-butenyloxy)benzylamine] — 460-fold higher, 3300 nM
- CN(C/C=C/C#CC(C)(C)C)Cc1cccc(OCc2cccc(C=O)c2)c1 [Compound 95, (E)-N-(6,6-dimethyl-2-hepten-4-ynyl)-N-methyl-3-(3-formylbenzyloxy)benzylamine] — 960-fold higher, 6800 nM
- CN(C/C=C/C#CC(C)(C)C)Cc1cccc(OCc2cccc(CO)c2)c1 [Compound 96, (E)-N-(6,6-dimethyl-2-hepten-4-ynyl)-N-methyl-3-(3-hydroxymethylbenzyloxy)benzylamine] — 120-fold higher, 840 nM
- Cc1ccccc1/C=C/c1cccc(CN(C)C/C=C/C#CC(C)(C)C)c1 [Compound 99, N-[(E)-6,6-dimethyl-2-hepten-4-ynyl]-N-methyl-3-[(E)-o-methylstyryl]benzylamine] — 280-fold higher, 2000 nM
- CN(C/C=C/C#CC(C)(C)C)Cc1cccc(/C=C/c2cccc3ccccc23)c1 [Compound 100, N-[(E)-6,6-dimethyl-2-hepten-4-ynyl]-N-methyl-3-[(E)-2-(1-naphthylvinyl)]benzylamine] — 17-fold higher, 120 nM
- CN(C/C=C/C#CC(C)(C)C)Cc1cccc(C#Cc2ccccc2)c1 [Compound 101, (E)-N-(6,6-dimethyl-2-hepten-4-ynyl)-N-methyl-3-(2-phenylethynyl)benzylamine] — 300-fold higher, 2100 nM
- CN(C/C=C/C#CC(C)(C)C)Cc1cccc(NCc2ccccc2)c1 [Compound 102, (E)-N-(6,6-dimethyl-2-hepten-4-ynyl)-N-methyl-3-benzylaminobenzylamine] — 300-fold higher, 2100 nM
- CN(C/C=C/C#CC(C)(C)C)Cc1cccc(CNc2ccccc2)c1 [Compound 104, (E)-N-[6,6-dimethyl-2-hepten-4-ynyl]-N-methyl-3-anilinomethylbenzylamine hydrochloride] — 1100-fold higher, 7700 nM
- CN(C/C=C/C#CC(C)(C)C)Cc1cccc(/C=C/c2ccccn2)c1 [Compound 108, (E)-N-(6,6-dimethyl-2-hepten-4-ynyl)-N-methyl-3-[(E)-2-(2-pyridyl)vinyl]benzylamine] — 63-fold higher, 450 nM
- Cc1ccccc1COc1ccnc(CN(C)C/C=C/C#CC(C)(C)C)c1 [Compound 112, (E)-N-(6,6-dimethyl-2-hepten-4-ynyl)-N-methyl-4-(2-methylbenzyloxy)-2-pyridylmethylamine] — 97-fold higher, 690 nM
- CN(C/C=C/C#CC(C)(C)C)Cc1ccc(/C=C/c2ccccc2)o1 [Compound 115, N-[(E)-6,6-dimethyl-2-hepten-4-ynyl]-N-methyl-5-[(E)-styryl]furfurylamine] — 38-fold higher, 270 nM
- CN(C/C=C/C#CC(C)(C)C)Cc1csc(/C=C/c2ccccc2)n1 [Compound 117, N-[(E)-6,6-dimethyl-2-hepten-4-ynyl]-N-methyl-2-[(E)-styryl]-4-thiazolylmethylamine] — 73-fold higher, 520 nM
- CCN(C/C=C/C#CC(C)(C)C)Cc1cccc(OCc2cccc(-c3cnco3)c2)c1 [Compound 120, (E)-N-(6,6-dimethyl-2-hepten-4-ynyl)-N-ethyl-3-[3-(5-oxazolyl)benzyloxy]benzylamine] — 2.6-fold lower, 2.7 nM
- CCN(C/C=C/C#CC(C)(C)C)Cc1cccc(OCc2cccc(-c3cncs3)c2)c1 [Compound 121, (E)-N-(6,6-dimethyl-2-hepten-4-ynyl)-N-ethyl-3-[3-(5-thiazolyl)benzyloxy]benzylamine] — 3.7-fold higher, 26 nM
- CCCN(C/C=C/C#CC(C)(C)C)Cc1cccc(OCc2cccc(-n3cccc3)c2)c1 [Compound 122, (E)-N-(6,6-dimethyl-2-hepten-4-ynyl)-N-propyl-3-[3-(1-pyrrolyl)benzyloxy]benzylamine] — 1.8-fold higher, 13 nM
- CCCN(C/C=C/C#CC(C)(C)C)Cc1cccc(OCc2cccc(-c3cnco3)c2)c1 [Compound 123, (E)-N-(6,6-dimethyl-2-hepten-4-ynyl)-N-propyl-3-[3-(5-oxazolyl)benzyloxy]benzylamine] — 4.8-fold higher, 34 nM
- COC(C)(C)C#C/C=C/CN(C)Cc1cccc(OCc2ccccc2)c1 [Compound 126, (E)-N-(6-methoxy-6-methyl-2-hepten-4-ynyl)-N-methyl-3-benzyloxybenzylamine] — 310-fold higher, 2200 nM
- Cc1ccccc1COc1cccc(CN(C)C/C=C/C#CC2(C)CC2)c1 [Compound 131, (E)-N-methyl-N-[5-(1-methylcyclopropyl)-2-penten-4-ynyl]-3-(2-methylbenzyloxy)benzylamine] — 140-fold higher, 1000 nM
- Cc1ccccc1COc1cccc(CN(C)C/C=C/C=C/C(C)(C)C)c1 [Compound 132, (E),(E)-N-(6,6-dimethyl-2,4-heptadienyl)-N-methyl-3-(2-methylbenzyloxy)benzylamine] — 760-fold higher, 5400 nM
- CN(C/C=C/c1ccccc1)Cc1cccc2ccccc12 [naftifine, reference compound] — higher, > 100000 nM

Each compound was assayed on cholesterol biosynthesis in the cultured Hep-G2 cells (assay: Inhibitory activity on cholesterol biosynthesis in cultured cells ([14C] acetate incorporation)). Conditions: HepG2; Human hepatoma (Hep-G2) cells, [14C] sodium acetate, 6 hours; read-out: 50% inhibitory concentration (IC₅₀).
Type: cell-based
Method: Human hepatoma (Hep-G2) cells were cultured in 10 cm² dishes until they formed a monolayer. One milliliter of the culture medium was replaced, and 1 µCi of [¹⁴C] sodium acetate and 1 microliter of a dimethyl sulfoxide solution of a test drug were added, and the cells were cultured at 37 °C in air containing 5 % of carbon dioxide for 6 hours.
After the cultivation, the medium was aspirated, and the cells were cooled with ice, and washed with Dulbecco's phosphate buffered saline solution. The resulting cells were scraped by a rubber policeman, and collected by centrifugation. The cells collected were dissolved in 400 microliters of 0.3N sodium hydroxide. A 200 microliters aliquot of the solution was used for extraction, and the remainder, for protein determination.
To 200 microliters of the extracted cells, 15 % ethanolic potassium hydroxide was added, and saponification was carried out at 75 °C for 1 hour. Water (1 ml) was then added, and the mixture was extracted with 2 ml of petroleum ether twice to remove non-saponified materials. The petroleum ether extracts were washed with 1 ml of water, and evaporated under a nitrogen stream. The residue was spotted on a pre-coated silica gel TLC plate using a small amount of chloroform, and developed with hexane/ethyl ether/acetic acid (85:15:4). Cholesterol and squalene portions on the TLC were detected with iodine, and the corresponding TLC portions were cut out. The TLC strips were immersed in a toluene-type scintillator, and radioactivity was counted by a liquid scintillation counter. The results were corrected by the amount of proteins measured by the method described in J. Biol. Chem., vol. 193, page 265, 1951. The 50 % inhibitory concentration (IC₅₀ value) of the compound of the invention on cholesterol biosynthesis in the cultured Hep-G2 cells was calculated.

`CCN(C/C=C/C#CC(C)(C)C)Cc1cccc(OCc2ccccc2)c1` [Compound 36, (E)-N-(6,6-dimethyl-2-hepten-4-ynyl)-N-ethyl-3-benzyloxybenzylamine hydrochloride] showed an IC50 of 64 nM.
